Columns and labels:
[1] = target: JAK1 (recombinant purified GST-tagged catalytic domain) (Homo sapiens (Human), UniProt P23458); assay: Jak Biochemical HTRF Assay (JAK1); conditions: [ATP] 31.8 μM
Method in brief: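 Kinase reaction with biotinylated peptide substrate was started by ATP addition and run 120 min at room temperature, then quenched with EDTA stop buffer containing streptavidin-Dylight 650 and Eu-pY20 antibody. HTRF read 60 min later (665/615 nm ratio); percent inhibition vs log concentration fit to 4-parameter curve for IC50.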

[2] = target: JAK2 (recombinant purified GST-tagged catalytic domain) (Homo sapiens (Human), UniProt O60674); assay: Jak Biochemical HTRF Assay (JAK2); conditions: [ATP] 8.5 μM
Chain of JAK2 (recombinant purified GST-tagged catalytic domain) (O60674 849-1124): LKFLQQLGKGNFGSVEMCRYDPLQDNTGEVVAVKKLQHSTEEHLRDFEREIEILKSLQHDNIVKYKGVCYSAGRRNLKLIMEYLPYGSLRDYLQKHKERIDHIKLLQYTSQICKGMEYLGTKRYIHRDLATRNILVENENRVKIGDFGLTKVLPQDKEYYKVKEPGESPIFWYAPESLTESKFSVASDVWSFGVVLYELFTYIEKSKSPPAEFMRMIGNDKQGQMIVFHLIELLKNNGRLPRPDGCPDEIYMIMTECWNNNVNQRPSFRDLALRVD

Chain of JAK1 (recombinant purified GST-tagged catalytic domain) (P23458 875-1153): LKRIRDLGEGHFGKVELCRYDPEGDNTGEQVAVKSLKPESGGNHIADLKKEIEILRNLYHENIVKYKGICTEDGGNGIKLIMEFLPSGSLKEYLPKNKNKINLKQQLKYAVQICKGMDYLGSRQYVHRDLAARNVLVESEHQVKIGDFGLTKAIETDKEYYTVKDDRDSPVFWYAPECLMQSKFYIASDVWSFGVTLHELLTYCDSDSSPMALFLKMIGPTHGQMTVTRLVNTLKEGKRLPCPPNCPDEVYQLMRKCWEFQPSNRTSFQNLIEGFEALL

Structure (SMILES) | IC50 [1] [nM] | IC50 [2] [nM]
CN(C)S(=O)(=O)c1ccc(Nc2nn(C3(CC#N)CCN(C(=O)c4ccccc4Cl)CC3)c3cc[nH]c(=O)c23)cc1 [Example 9-15, 4-[(1-{1-[(2-chlorophenyl)carbonyl]-4-(cyanomethyl)piperidin-4-yl}-4-oxo-4,5-dihydro-1H-pyrazolo[4,3-c]pyridin-3-yl)amino]-N,N-dimethylbenzenesulfonamide] | 0.81 | 8.38
CC(C)(C)OC(=O)c1ccc(Nc2nn(C3(CC#N)CCCC3)c3cc[nH]c(=O)c23)cc1 [Example 5-127, tert-butyl 4-((1-(1-(cyanomethyl)cyclopentyl)-4-oxo-4,5-dihydro-1H-pyrazolo[4,3-c]pyidin-3-yl)amino)benzoate] | 4.76 | 30.5
CC(C)(C)S(=O)(=O)c1ccc(Nc2nn([C@]3(CC#N)CCCOC3)c3cc[nH]c(=O)c23)cc1 [Example 5-183, [(3S)-3-(3-{[4-(tert-butylsulfonyl)phenyl]amino}-4-oxo-4,5-dihydro-1H-pyrazolo[4,3-c]pyridin-1-yl)tetrahydro-2H-pyran-3-yl]acetonitrile] | 0.17 | 0.47
CCN(C)S(=O)(=O)c1ccc(Nc2nn([C@]3(CC#N)CC[C@@H](C(=O)OC(C)(C)C)OC3)c3cc[nH]c(=O)c23)cc1 [Example 5-92, (2S,5S)-tert-butyl 5-(cyanomethyl)-5-(3-((4-(N-ethyl-N-methylsulfamoyl)phenyl)amino)-4-oxo-4,5-dihydro-1H-pyrazolo[4,3-c]pyridin-1-yl)tetrahydro-2H-pyran-2-carboxylate] | 0.09 | 0.13
CS(=O)(=O)NC(=O)[C@@H]1CC[C@@](CC#N)(n2nc(Nc3ccc(Cl)cc3)c3c(=O)[nH]ccc32)CO1 [Example 22, (2S,5S)-5-(3-((4-chlorophenyl)amino)-4-oxo-4,5-dihydro-1H-pyrazolo[4,3-c]pyridin-1-yl)-5-(cyanomethyl)-N-(methylsulfonyl)tetrahydro-2H-pyran-2-carboxamide] | 3.78 | 23.3
N#CC[C@]1(n2nc(Nc3ccnc(F)c3)c3c(=O)[nH]ccc32)CCCC[C@H]1F [Example 5-152, 2-((1R,2R)-2-fluoro-1-(3-((2-fluoropyridin-4-yl)amino)-4-oxo-4,5-dihydro-1H-pyrazolo[4,3-c]pyridin-1-yl)cyclohexyl)acetonitrile] | 0.09 | 0.68
CC(C)S(=N)(=O)c1ccc(Nc2nn([C@]3(CC#N)CCCOC3)c3cc[nH]c(=O)c23)cc1 (single isomer, unassigned) [Example 5-233, 2-((3S)-3-(4-oxo-3-((4-(propan-2-yl-(S or R)-sulfonimidoyl)phenyl)amino)-4,5-dihydro-1H-pyrazolo[4,3-c]pyridin-1-yl)tetrahydro-2H-pyran-3-yl)acetonitrile] | 0.36 | 0.4
CC1(C)CCCC1S(=O)(=O)c1ccc(Nc2nn([C@]3(CC#N)CCCOC3)c3cc[nH]c(=O)c23)cc1 (stereo partly drawn) [Example 5-202, {(3S)-3-[3-({4-[(2,2-dimethylcyclopentyl)sulfonyl]phenyl}amino)-4-oxo-4,5-dihydro-1H-pyrazolo[4,3-c]pyridin-1-yl]tetrahydro-2H-pyran-3-yl}acetonitrile] | 0.39 | 1.2
CC(C)(C)OC(=O)[C@@H]1CC[C@@](CC#N)(n2nc(Nc3ccc(S(=O)(=O)C4CC4)cc3)c3c(=O)[nH]ccc32)CO1 [Example 5-236, (2S,5S)-tert-butyl 5-(cyanomethyl)-5-(3-((4-(cyclopropylsulfonyl)phenyl)amino)-4-oxo-4,5-dihydro-1H-pyrazolo[4,3-c]pyridin-1-yl)tetrahydro-2H-pyran-2-carboxylate] | 0.12 | 0.25
CC(C)(C)OC(=O)[C@@H]1CC[C@@](CC#N)(n2nc(Nc3ccc(C(C)(O)C(F)(F)F)cc3)c3c(=O)[nH]ccc32)CO1 (single isomer, unassigned) [Example 5-171, (2S,5S)-tert-butyl 5-(cyanomethyl)-5-(4-oxo-3-((4-((S or R)-1,1,1-trifluoro-2-hydroxypropan-2-yl)phenyl)amino)-4,5-dihydro-1H-pyrazolo[4,3-c]pyridin-1-yl)tetrahydro-2H-pyran-2-carboxylate] | 0.07 | 0.18
CC(C)(C)OC(=O)N1CCC(CC#N)(n2nc(Nc3ccc(C(F)(F)F)cc3)c3c(=O)[nH]ccc32)CC1 [Example 5-8, tert-butyl 4-(cyanomethyl)-4-(4-oxo-3-{[4-(trifluoromethyl)phenyl]amino}-4,5-dihydro-1H-pyrazolo [4,3-c]pyridin-1-yl) piperidine-1-carboxylate] | 1.96 | 20

Now from value to compound:

IC50 [1] [nM] | IC50 [2] [nM] | Structure (SMILES)
0.31 | 2.48 | CN(C)S(=O)(=O)c1ccc(Nc2nn(C3(CC#N)CCN(C(=O)C4CCOCC4)CC3)c3cc[nH]c(=O)c23)cc1 [Example 9-20, 4-({1-[4-(cyanomethyl)-1-(tetrahydro-2H-pyran-4-ylcarbonyl)piperidin-4-yl]-4-oxo-4,5-dihydro-1H-pyrazolo[4,3-c]pyridin-3-yl}amino)-N,N-dimethylbenzenesulfonamide]
0.09 | 0.08 | CC(C)(C)OC(=O)N1CC[C@](CC#N)(n2nc(Nc3ccc(S(C)(=O)=O)cc3)c3c(=O)[nH]ccc32)[C@H](F)C1 [Example 5-17, tert-butyl (3R,4R)-4-(cyanomethyl)-3-fluoro-4-(3-{[4-(methylsulfonyl)phenyl]amino}-4-oxo-4,5-dihydro-1H-pyrazolo [4,3-c]pyridin-1-yl) piperidine-1-carboxylate]
0.29 | 0.95 | CN(C)S(=O)(=O)c1ccc(Nc2nn([C@@]3(CC#N)COCC[C@H]3F)c3cc[nH]c(=O)c23)cc1 (single isomer, unassigned) [Example 5-181, 4-({1-[(3S,4R or 3S,4R)-3-(cyanomethyl)-4-fluorotetrahydro-2H-pyran-3-yl]-4-oxo-4,5-dihydro-1H-pyrazolo[4,3-c]pyridin-3-yl}amino)-N,N-dimethylbenzene-sulfonamide]
1.81 | 16.9 | CN1Cc2cc(Nc3nn([C@]4(CC#N)CC[C@H](N5CC(F)C5)CC4)c4cc[nH]c(=O)c34)ccc2S1(=O)=O [Example 18-31]
0.17 | 0.14 | CC(C)NC(C)(C)c1ccc(Nc2nn([C@@]3(CC#N)CCN(C(=O)OC(C)(C)C)C[C@H]3F)c3cc[nH]c(=O)c23)cc1 [Example 5-273, tert-butyl (3R,4R)-4-(cyanomethyl)-3-fluoro-4-{3-[(4-{1-methyl-1-[(1-methylethyl)amino]ethyl}phenyl)amino]-4-oxo-4,5-dihydro-1H-pyrazolo[4,3-c]pyridin-1-yl}piperidine-1-carboxylate]
0.09 | 0.41 | CS(=O)(=O)c1ccc(Nc2nn(C3(CC#N)CCN(c4ccc(Br)cn4)CC3)c3cc[nH]c(=O)c23)cc1 [Example 15-8, 2-(1-(5-bromopyridin-2-yl)-4-(3-((4-(methylsulfonyl)phenyl)amino)-4-oxo-4,5-dihydro-1H-pyrazolo[4,3-c]pyridin-1-yl)piperidin-4-yl)acetonitrile]

Reference: patent publication US9957264B2 (Merck Sharp & Dohme Corp., priority 2013, dated 2018)
